How the values were obtained:
[1] = rats, intravenously; cited from earlier work
[2] = tested on: MLO-Y4 osteocytic cells; settings: for inhibition of glucocorticoid-induced apoptosis: then dexamethasone 10^−6 M for 6 h
Description: The murine long bone-derived osteocytic cell line MLO-Y4 was provided by Dr. Lynda Bonewald (University of Texas Health Center at San Antonio, Tex.). Cells were cultured in phenol red-free αMEM supplemented with 5% FBS, 5% bovine calf serum, 100 U/ml penicillin and 100 μg/ml streptomycin. Cells were plated at 1-2×10^4 cells/cm^2 on collagen type I coated plates, as described previously (Kato, et al., 1997. J. Bone Miner. Res. 12:2014-2023). Murine calvaria cells were obtained from neonatal (3- to 6-day old) C57BL/6J mice by controlled digestion with collagenase, as previously described (Bellido, et al., 1997. Endocrinology 138:3666-3676). After isolation, cells were cultured in 10% FBS at 1-2×10^4 cells/cm^2 until 90-95% confluence. Subsequently, cells were harvested and frozen for later use. UMR-106-06 cells were cultured in phenol red-free MEM supplemented with 10% FBS, 1% non-essential aminoacids, 100 U/ml penicillin, and 100 μg/ml streptomycin (Sakagami, et al., Manolagas. 1993. J. Bone Miner. Res. 8:811-816).
Nonadherent cells were combined with adherent cells released from the culture dish using trypsin-EDTA, resuspended in medium containing serum, and collected by centrifugation. […] At least 100 cells per condition were counted.
(§1) MLO-Y4 osteocytic cells and calvaria osteoblastic cells were treated for 1 hour in the absence or presence of different BPs or sCT. Subsequently, dexamethasone, etoposide or TNF-α were added to obtain final concentrations of 10^−6 M, […], or 1 nM, respectively, and cells were incubated for additional 6 h. The effect of PD98059 (50 μM) or UO126 (1 μM) was evaluated by pretreating the cells with the inhibitors for 30 min before adding the BPs or sCT. In the experiment using the membrane permeable caspase inhibitor DEVD, cells were cultured for 1 hour with 50 nM DEVD-CHO and subsequently the pro-apoptotic agents were added to reach the final concentrations indicated above. […] At least 500 cells from fields selected by systematic random sampling were examined for each experimental condition. […] The TUNEL reaction was performed according to the manufacturer's instructions, using 0.15% CuSO4 for color enhancement. Negative controls were made by omitting the transferase from the reaction. Cells presenting brown nuclear staining were considered positive. More than 500 cells per condition were analyzed. Apoptosis of parental MLO-Y4 or calvaria cells was quantified by trypan blue staining (Jilka, et al., 1998. J. Bone Miner. Res. 13:793-802). Nonadherent cells were combined with adherent cells released from the culture dish using trypsin-EDTA, resuspended in medium containing serum, and collected by centrifugation. […] At least 100 cells per condition were counted.
MLO-Y4 cells were incubated for 1 h in vehicle or 50 nM DEVD-CHO. Subsequently, etoposide, TNF-α, or dexamethasone (Dex) were added at final concentrations of 50 μg/ml, 1 nM, or 10^−6 M, respectively, and cells were incubated for additional 6 h. Dead cells were enumerated by trypan blue uptake.
The percentage of dead cells was determined by trypan blue uptake, as in Methods and Materials. Bars represent the mean ±S.D. of three independent measurements.
Subsequently, etoposide, TNF-α, or dexarnethasone were added to reach final concentrations of 50 μg/ml, 1 nM, or 10^−6 M, respectively, and cells were cultured for 6 h, as in FIG. 1. The percentage of dead cells was determined by trypan blue uptake. Bars represent the mean ±S.D. of three independent measurements. Data were analyzed by two-way ANOVA.

[3] = tested on: osteocyte and osteoblast apoptosis in murine vertebral cancellous bone; assay: Murine model of glucocorticoid excess: TUNEL in vertebral bone sections and spinal BMD by DEXA; type: in vivo, Male Swiss Webster mice; settings: alendronate beginning 3 days before prednisolone pellets
Source text: To adjust for the difference in the metabolic rate in mice compared to that in humans, the daily glucocorticoid dose was divided by the metabolic weight, i.e. the weight in kg to the 3/4 power (Borchard, et al., 1992. Drug dosage in laboratory animals: a handbook. CRC Press, Inc., Boca Raton, Fla. 514 pp.; Kleiber, M. 1961. The fire of life: an introduction to animal energetics. New York). […] One control group received saline injections with placebo pellet implantation while another group received saline injections plus prednisolone pellets. Dual-energy X-ray absorptiometry (DEXA) was used to determine spinal bone mineral density (spinal BMD) at the end of the 56-day experiment, as previously described (Weinstein et al., 1998. J. Clin. Invest. 102:274-282).
Sections of vertebral bone (L1 to L5) were mounted on silane-coated glass slides (Scientific Device Lab, Inc., Des Plains, Ill.), deplasticized and incubated in 10 mM citrate buffer, pH 7.6, in a microwave oven at 98° C. for 5 minutes (Jilka, et al., 1998. J. Bone Miner. Res. 13:793-802). Slides were then incubated with 0.5% pepsin for 30 minutes at 37° C. Apoptotic cells were detected by the TUNEL reaction as described above using 0.15% CuSO4 for color enhancement of the diaminobenzidine in sections counterstained with 1% methyl green. The TUNEL reaction is noted within cell nuclei and the cells whose nuclei were clearly brown from the streptavidin-horse radish peroxidase conjugate instead of blue-green from the methyl green were interpreted as positive. Plastic-embledded sections of weaned rat mammary tissue were used as a positive control. Negative controls were made by omitting the transferase from the TUNEL reaction. Morphological changes characteristic of apoptosis were carefully examined to minimize ambiguity regarding the interpretation of results. […] Osteocytes were identified inside lacunae in mineralized bone (FIG. 11A). Osteoblasts were identified as cuboidal cells lining the osteoid-covered trabecular perimeter (FIG. 11B).

[4] = tested on: osteoblastic cells derived from murine calvaria; assay: Apoptosis of osteoblastic cells derived from murine calvaria by trypan blue uptake; type: cell-based; settings: 10^−7 M, 1 h pretreatment; 6 h
[5] = tested on: osteocytic MLO-Y4 cells; assay: TUNEL reaction in MLO-Y4 cells; type: cell-based, murine; settings: 10^−7 M alendronate 1 h and/or 10^−6 M dexamethasone 6 h
Description: as §1

[6] = tested on: caspase-3
Description: Caspase-3 activity was measured by determining the degradation of the fluorometric substrate DEVD, that contains acid sequence of the caspase-3 cleavage site in poly(ADP-ribose)polymerase (PARP) (Schlegel, et al., 1996. J. Biol. Chem. 271:1841-1844) conjugated with 7-amino-4-trifluoromethyl coumarin (DEVD-AFC). Cells were lysed in 20 mM Tris-HCl (H 7.5), 150 mM NaCl, 1 mM EDTA, 10 mM NaF, 1 mM sodium orthovanadate, 5 μg/ml leupeptin, 0.14 U/ml aprotinin, 1 mM phenylmethylsulfonylfluoride, and 1% Triton X-100. Protein concentration was measured using a Bio-Rad detergent compatible kit (Hercules, Calif.). Lysates (100 μg protein) were incubated with 50 μM DEVD-AFC in 50 mM HEPES, pH 7.4, 100 mM NaCl, 0.1% CHAPS, 10 mM DTT, 1 mM EDTA, 10% glycerol, in the absence or presence of the irreversible inhibitor DEVD-CHO for 60 min. The released fluorescent AFC was measured in a microplate fluorescence reader FL500 (Bio Tek Instruments, Winooski, Vt.) with excitation/emission wavelengths of 340/542 nm.
Caspase-3 activity was determined by measuring the degradation of the fluorometric substrate DEVD-AFC in the absence or presence of the irreversible inhibitor DEVD-CHO, as detailed in Example 5.

[7] = tested on: ERK1/2; assay: ERK1/2 phosphorylation in MLO-Y4 cells by Western blot; type: cell-based, murine; settings: 10^−7 M
Description: Monolayers were washed with cold 20 mM Tris-HCl (pH 7.5), 150 mM NaCl, 1 mM sodium orthovanadate and lysed in the lysis buffer mentioned above. Insoluble material was pelleted in a microcentrifuge at 14,000×rpm for 10 mn. […] Proteins (10 μg) were separated on 7.5% SDS-polyacrylamide gels and electrotransferred to a polyvinylidene difluoride membrane. Immunoblotting was performed using a mouse monoclonal antibody recognizing tyrosine phosphorylated ERK1/2, or a rabbit polyclonal antibody recognizing total ERK1/2, followed by incubation with either an antimouse or an antirabbit antibody conjugated with horseradish peroxidase. Blots were developed using Chemiluminescence according to the manufacturer's recommendations. Quantitation of the intensity of the bands in the autoradiograms was performed using a scanner (Microtek Lab., Redondo Beach, Calif.).

[8] = cited from earlier work
[9] = tested on: osteoblast apoptosis; settings: intermittent PTH administration in mice; decreased from 1.7-2.2%; cited from earlier work

Question: For `CC(=O)N[C@@H](CS)C(=O)O` [N-acetylcysteine, acetarnido-mercaptopropionic acid], which LD50 [1] is on record?
Answer: The LD50 was 1140 mg/kg.

Question: With `NCCCC(O)(P(=O)(O)O)P(=O)(O)O` [alendronate, 4-amino-1-hydroxybutylidene-1,1-bisphosphonate] as the molecule, how does the “number of living MLO-Y4 cells” value ([2]; 10^−6 M dexamethasone 24 h, 10^−7 M alendronate 1 h pretreatment) read?
Answer: The value was “abolished this effect”.

Question: What about the “prevention of apoptosis induced by etoposide or TNF-α” value ([2]; 10^−7 M, 1 h pretreatment, 6 h) of the same molecule?
Answer: Its value is “prevented apoptosis”.

Question: What about the “cell viability in the absence of pro-apoptotic stimuli” value ([2]; 10^−10 to 10^−3 M) of the same molecule?
Answer: Its value is “did not affect cell viability”.

Question: What about the “inhibition of glucocorticoid-induced apoptosis” value ([2]; 1 h pretreatment) of the same molecule?
Answer: Its value is “Comparable responses”.

Question: And the “bone loss induced by the glucocorticoid” value [3]?
Answer: The value was “prevented the bone loss”.

Question: And the “increase in bone cell apoptosis induced by the glucocorticoid” value [3]?
Answer: The value was “abolished the increase in bone cell apoptosis”.

Question: And the “inhibition of apoptosis of osteoblastic cells induced by dexamethasone, TNF-α and etoposide” value [4]?
Answer: The value was “inhibited apoptosis”.

Question: What about the “% of TUNEL positive cells” value [5] of the same molecule?
Answer: The value was 6.16%.

Question: And the “Number of TUNEL positive cells” value [5]?
Answer: Its value is 35.

Question: What about the “number of TUNEL negative cells” value [5] of the same molecule?
Answer: The value was 533.

Question: What about the “dexamethasone-induced increase in caspase-3 activity” value ([6]; 10^−7 M alendronate 1 h, then 10^−6 M dexamethasone 16 h) of the same molecule?
Answer: The value was “inhibited the dexamethasone-induced increase in caspase-3 activity”.

Question: What about the “caspase-3 activity, TUNEL positive cells and number of living cells” value ([6]; alendronate alone, absence of dexamethasone) of the same molecule?
Answer: The value was “did not affect any of these parameters”.

Question: What about the “earliest time at which increased ERK phosphorylation was observed” value [7] of the same molecule?
Answer: The value was 0.5 min.

Question: What about the “phosphorylation of ERK 1 and 2” value [7] of the same molecule?
Answer: The value was “rapid and transient increase”.

Question: Which “inhibition of glucocorticoid-induced apoptosis” value ([2]; 1 h pretreatment) does the source give for `CC(O)(P(=O)(O)O)P(=O)(O)O` [etidronate] here?
Answer: Its value is “Comparable responses”.

Question: What about the “phosphorylation of ERK 1 and 2” value [7] of the same molecule?
Answer: Its value is “increase in the phosphorylated fraction of ERKs”.

Question: What about the “reduction of resorption depth in human iliac trabecular bone” value ([8]; after one year of treatment) of the same molecule?
Answer: Its value is about 30%.

Question: Which “increase in vertebral bone mass” value ([8]; for at least four years) does the source give for `[F-].[Na+]` [sodium fluoride] here?
Answer: Its value is 10 % a year.

B1: PTH: parathyroid hormone, intermittent administration (protein, UniProt P01270 32-115, looked up)
Parathyroid hormone: SVSEIQLMHNLGKHLNSMERVEWLRKKLQDVHNFVALGAPLAPRDAGSQRPRKKEDNVLVESHEKSLGEADKADVNVLTKAKSQ
modifications: Parathyroid hormone
notes: parathyroid hormone, intermittent administration
Question: With B1 as the molecule, how does the “prevalence of osteoblast apoptosis” value [9] read?
Answer: Its value is 0.1-0.4%.
